Measurements taken from PubChem BioAssay (NCI).
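These data come from cells grown in 96-well plates and exposed to compound for 48 hours at five concentrations. Here, GI50 denotes the concentration required for 50% inhibition of growth. TGI: concentration producing complete growth inhibition.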

Columns and labels:
Experiment in all cases: NCI-60 cell line screen, 48 h
786-0 renal = test system: 786-0 renal
A498 renal = test system: A498 renal
A549 NSCLC = test system: A549 NSCLC
ACHN renal = test system: ACHN renal
BT-549 breast = test system: BT-549 breast
CAKI-1 renal = test system: CAKI-1 renal
CCRF-CEM leukemia = test system: CCRF-CEM leukemia
COLO 205 colon = test system: COLO 205 colon
DU-145 prostate = test system: DU-145 prostate
EKVX NSCLC = test system: EKVX NSCLC
HCC-2998 colon = test system: HCC-2998 colon
HCT-116 colon = test system: HCT-116 colon
HCT-15 colon = test system: HCT-15 colon
HL-60(TB) leukemia = test system: HL-60(TB) leukemia
HOP-62 NSCLC = test system: HOP-62 NSCLC
HOP-92 NSCLC = test system: HOP-92 NSCLC
HS 578T breast = test system: HS 578T breast
HT29 colon = test system: HT29 colon
IGROV1 ovarian = test system: IGROV1 ovarian
K-562 leukemia = test system: K-562 leukemia
KM12 colon = test system: KM12 colon
LOX IMVI melanoma = test system: LOX IMVI melanoma
M14 melanoma = test system: M14 melanoma
MALME-3M melanoma = test system: MALME-3M melanoma
MCF7 breast = test system: MCF7 breast
MDA-MB-231 breast = test system: MDA-MB-231 breast
MDA-MB-435 = test system: MDA-MB-435
MOLT-4 leukemia = test system: MOLT-4 leukemia
NCI-H226 lung = test system: NCI-H226 lung
NCI-H23 lung = test system: NCI-H23 lung
NCI-H460 lung = test system: NCI-H460 lung
NCI-H522 lung = test system: NCI-H522 lung
NCI/ADR-RES ovarian = test system: NCI/ADR-RES ovarian
OVCAR-3 ovarian = test system: OVCAR-3 ovarian
OVCAR-4 ovarian = test system: OVCAR-4 ovarian
OVCAR-5 ovarian = test system: OVCAR-5 ovarian
OVCAR-8 ovarian = test system: OVCAR-8 ovarian
PC-3 prostate = test system: PC-3 prostate
RPMI-8226 leukemia = test system: RPMI-8226 leukemia
RXF 393 renal = test system: RXF 393 renal
SF-268 CNS = test system: SF-268 CNS
SF-295 CNS = test system: SF-295 CNS
SF-539 CNS = test system: SF-539 CNS
SK-MEL-2 melanoma = test system: SK-MEL-2 melanoma
SK-MEL-28 melanoma = test system: SK-MEL-28 melanoma
SK-MEL-5 melanoma = test system: SK-MEL-5 melanoma
SK-OV-3 ovarian = test system: SK-OV-3 ovarian
SN12C renal = test system: SN12C renal
SNB-19 CNS = test system: SNB-19 CNS
SNB-75 CNS = test system: SNB-75 CNS
SR leukemia = test system: SR leukemia
SW-620 colon = test system: SW-620 colon
T-47D breast = test system: T-47D breast
TK-10 renal = test system: TK-10 renal
U251 CNS = test system: U251 CNS
UACC-257 melanoma = test system: UACC-257 melanoma
UACC-62 melanoma = test system: UACC-62 melanoma
UO-31 renal = test system: UO-31 renal

c1ccc(-c2oc(-c3ccccc3)c(CN3CCCCC3)c2CN2CCCCC2)cc1
GI50 (786-0 renal): 2.8 µM | TGI (786-0 renal): 12.7 µM | GI50 (A498 renal): 2.41 µM | TGI (A498 renal): 11.8 µM | GI50 (A549 NSCLC): 5.55 µM | TGI (A549 NSCLC): 24.8 µM | GI50 (ACHN renal): 2.54 µM | TGI (ACHN renal): 10.2 µM | GI50 (BT-549 breast): 3.35 µM | TGI (BT-549 breast): 13.3 µM | GI50 (CAKI-1 renal): 4.81 µM | TGI (CAKI-1 renal): 18.7 µM | GI50 (CCRF-CEM leukemia): 2.54 µM | TGI (CCRF-CEM leukemia): 9.97 µM | GI50 (COLO 205 colon): 1.45 µM | TGI (COLO 205 colon): 5.01 µM | GI50 (DU-145 prostate): 7.72 µM | TGI (DU-145 prostate): 21.6 µM | GI50 (EKVX NSCLC): 2.99 µM | TGI (EKVX NSCLC): 14.2 µM | GI50 (HCC-2998 colon): 2.02 µM | TGI (HCC-2998 colon): 4.23 µM | GI50 (HCT-116 colon): 1.05 µM | TGI (HCT-116 colon): 11.2 µM | GI50 (HCT-15 colon): 1.79 µM | TGI (HCT-15 colon): 10.3 µM | GI50 (HL-60(TB) leukemia): 1.96 µM | TGI (HL-60(TB) leukemia): 5.28 µM | GI50 (HOP-62 NSCLC): 4.69 µM | TGI (HOP-62 NSCLC): 21.8 µM | GI50 (HOP-92 NSCLC): 1.48 µM | TGI (HOP-92 NSCLC): 5.89 µM | GI50 (HS 578T breast): 3.14 µM | TGI (HS 578T breast): 15.8 µM | GI50 (HT29 colon): 1.27 µM | TGI (HT29 colon): 13.3 µM | GI50 (IGROV1 ovarian): 1.73 µM | TGI (IGROV1 ovarian): 14.4 µM | GI50 (K-562 leukemia): 1.94 µM | TGI (K-562 leukemia): 6.51 µM | GI50 (KM12 colon): 2.9 µM | TGI (KM12 colon): 10.4 µM | GI50 (LOX IMVI melanoma): 3.19 µM | TGI (LOX IMVI melanoma): 12.1 µM | GI50 (M14 melanoma): 1.83 µM | TGI (M14 melanoma): 4.25 µM | GI50 (MALME-3M melanoma): 1.75 µM | TGI (MALME-3M melanoma): 3.65 µM | GI50 (MCF7 breast): 1.66 µM | TGI (MCF7 breast): 6.15 µM | GI50 (MDA-MB-231 breast): 1.77 µM | TGI (MDA-MB-231 breast): 6.06 µM | GI50 (MDA-MB-435): 2.73 µM | TGI (MDA-MB-435): 10.6 µM | GI50 (MOLT-4 leukemia): 2.03 µM | TGI (MOLT-4 leukemia): 5.58 µM | GI50 (NCI-H226 lung): 5.19 µM | TGI (NCI-H226 lung): 22.7 µM | GI50 (NCI-H23 lung): 3.21 µM | TGI (NCI-H23 lung): 13 µM | GI50 (NCI-H460 lung): 3.25 µM | TGI (NCI-H460 lung): 14.2 µM | GI50 (NCI-H522 lung): 2.47 µM | TGI (NCI-H522 lung): 11.7 µM | GI50 (NCI/ADR-RES ovarian): 4.17 µM | TGI (NCI/ADR-RES ovarian): 15.9 µM | GI50 (OVCAR-3 ovarian): 2.92 µM | TGI (OVCAR-3 ovarian): 10.5 µM | GI50 (OVCAR-4 ovarian): 2.65 µM | TGI (OVCAR-4 ovarian): 13.6 µM | GI50 (OVCAR-5 ovarian): 1.82 µM | TGI (OVCAR-5 ovarian): 8.85 µM | GI50 (OVCAR-8 ovarian): 3.91 µM | TGI (OVCAR-8 ovarian): 17.1 µM | GI50 (PC-3 prostate): 2.34 µM | TGI (PC-3 prostate): 7.73 µM | GI50 (RPMI-8226 leukemia): 1.66 µM | TGI (RPMI-8226 leukemia): 4.08 µM | GI50 (RXF 393 renal): 1.85 µM | TGI (RXF 393 renal): 5.74 µM | GI50 (SF-268 CNS): 6.04 µM | TGI (SF-268 CNS): 20.6 µM | GI50 (SF-295 CNS): 2.05 µM | TGI (SF-295 CNS): 6.58 µM | GI50 (SF-539 CNS): 1.68 µM | TGI (SF-539 CNS): 3.47 µM | GI50 (SK-MEL-2 melanoma): 3.72 µM | TGI (SK-MEL-2 melanoma): 15.7 µM | GI50 (SK-MEL-28 melanoma): 1.53 µM | TGI (SK-MEL-28 melanoma): 3.02 µM | GI50 (SK-MEL-5 melanoma): 1.59 µM | TGI (SK-MEL-5 melanoma): 3.08 µM | GI50 (SK-OV-3 ovarian): 3.97 µM | TGI (SK-OV-3 ovarian): 17 µM | GI50 (SN12C renal): 2.84 µM | TGI (SN12C renal): 12.4 µM | GI50 (SNB-19 CNS): 2.64 µM | TGI (SNB-19 CNS): 8.72 µM | GI50 (SNB-75 CNS): 4.13 µM | TGI (SNB-75 CNS): 18.6 µM | GI50 (SR leukemia): 2.52 µM | TGI (SR leukemia): 6.06 µM | GI50 (SW-620 colon): 3.05 µM | TGI (SW-620 colon): 16.4 µM | GI50 (T-47D breast): 2.71 µM | TGI (T-47D breast): 11.7 µM | GI50 (TK-10 renal): 4.58 µM | TGI (TK-10 renal): 19 µM | GI50 (U251 CNS): 3.55 µM | TGI (U251 CNS): 14.2 µM | GI50 (UACC-257 melanoma): 3 µM | TGI (UACC-257 melanoma): 8.08 µM | GI50 (UACC-62 melanoma): 1.79 µM | TGI (UACC-62 melanoma): 4.35 µM | GI50 (UO-31 renal): 2.13 µM | TGI (UO-31 renal): 11.1 µM
